Measured values taken from patent US4221909A, “P-Acetamidobenzoic acid salts of 9-(hydroxyalkyl) purines” (Sloan-Kettering Institute for Cancer Research, priority 1978, dated 1980).
Where a name gives a salt, the structure may show the parent alone.

Experiments:
Type in all cases: cell-based
Mouse spleen cells = experiment: Mitogen Induced (Con A) Mouse Lymphocyte Proliferation
Excerpt: The following three assay procedures are used to evaluate the ability of the test substances to modulate the activity of several classes of cells in the immune system. In these systems it is possible to identify both immunopotentiating activity (evidence by an enhancement of the parameter examined) as well as immunosuppressant activity (evidenced by an inhibition of the parameter examined).
1. Mitogen--Induced Mouse Spleen Cell Assay--Mouse spleen cells contain a population of both B and T lymphocytes which can be stimulated by a number of foreign substances (e.g., plant mitogens such as Con A) to proliferate. This enhanced proliferation is an indication of enhanced cell mediated immunity. The method below describes the system used to evaluate test substances as immunopotentiators.
Concanavalin A (Calbiochem, La Jolla, Calif.), Lot #210073, lyophilized in NaCl, was prepared first as a 1% solution and diluted as a 2× concentration for each dilution (0.5, 1.0, 2.5 μg/ml).
Six to eight week old male Balb/c and C3 H inbred mice were obtained from the following sources: Flow Research Animals, Inc., Dublin, Va.; Charles River Breeding Laboratories, Wilmington, Mass.; Laboratory Supply Company, Indianapolis, Ind.; and Lionel Strong Foundation, San Diego, Calif.
Three to five mice were sacrificed by cervical dislocation and the spleens aseptically removed. Pooled spleens were minced and teased with sterile forceps; then strained through a double layer of nylon mesh. The cell suspension was washed once with 15 ml of RPMI 1640 supplemented with 5% fetal calf serum and antibiotics. Cells were cultured at a concentration of 10^6 cells/0.1 ml/well in micro-plates. Cultures were incubated in the presence or absence of mitogen in a humidified atmosphere containing 5% CO2 for 48 hours. The test compound was added to cultures at various concentrations concommitant with mitogen.
Proliferation was assayed by the degree of incorporation of 1.0 μCi of [^3 H] thymidine over an 18 hour incubation period. Cultures were harvested by a MASH unit (Otto Hiller Co., Madison, Wisconsin) and thymidine incorporation was assayed by liquid scintillation spectrometry. Cultures were performed in triplicate and data are expressed as means plus or minus the strandard error of the experimental means. Drug stimulation indices over control values were also calculated and portrayed graphically.

[1] = tested on: human peripheral blood lymphocytes; experiment: Mitogen Induced (PHA) Human Lymphocyte Proliferation
influenza virus = experiment: Anti-influenza activity (summary)
[2] = tested on: Influenza A USSR/90(H1 N1); experiment: Anti-Influenza Activity (Hemadsorption Assay), Influenza A USSR/90
Protocol: Upon infection of a monolayer of tissue culture cells by influenza virus, the cell surface is altered so that guinea pig erythrocytes can be adsorbed to the cell surface. The number of foci of adsorbed cells (hemadsorption foci forming units HAFFU) is a quantitative measure of infectivity. The method is as follows.
The monolayers were subcultured in the following manner: The medium was poured off, and the monolayer washed two times with approximately 50 ml per wash of calcium and magnesium free phosphate buffered saline (PBS), (GIBCO #419) at a pH of 7.2. One ml of trypsin-EDTA solution (GIBCO #530L) containing 0.5 g trypsin (1:250) and 2.0 g EDTA/liter of Modified Puck's Saline A was added at 37° C. to each flask and dispersed over the monolayer with gentle shaking. The flasks were then placed in an incubator at 37° C. for approximately 3-5 minutes depending on the time required to dislodge the cells. Occasional shaking was required. Ten ml of planting medium was added to each flask and the cells dispersed by aspirating and expelling the suspension from the pipette. The contents of a series of flasks were pooled and the cells in the suspension were diluted with planting medium to 7-8.5×10^4 cells/ml. The planting medium consisted of the following composition: Minimum Essential Medium Eagles (MEM) with Earle's salts and HEPES buffer (GIBCO #236) supplemented by adding the following substances as specified to 87 ml of MEM:
The following day the medium was removed and replaced with fresh planting medium. The monolayers were used for experimentation when they reached a condition in which they were almost confluent (approximately 3-4 days).
When the Linbro tray HeLa cell cultures were ready for experimentation (see cells), the medium was decanted and 1 ml of maintenance medium (MEM with FCS reduced to 3%) containing the compound being tested at a given concentration was added to 4 replicate cultures within a tray.
A series of different drug concentrations ranging from 2.3 to 150 μg/ml were used. Maintenance medium alone was used for control cultures. After the administration of drug and control medium, 0.1 ml of the diluted viral suspension was added to experimental groups and infected control cultures. Saline alone was added to non-infected control cultures. The Linbro trays were then incubated at 37° C. for 18 hours, after which media in all groups was aspirated. Each culture was washed once with PBS. The saline was aspirated and 0.5 ml of a 0.4% v/v guinea pig red blood cell suspension in PBS was added to each culture well. The cultures remained at room temperature for 30 minutes after which the medium was decanted and culture washed […] with PBS to remove all but the specifically bound red cells. After the third wash, maintenance medium was added to all cultures.
A Howard Micrometer eyepiece (C8385) was inserted within the ocular of a Nikon inverted phase contrast microscope. Each culture was scanned with a 4× low paper objective and direct counts of hemadsorbed red cells were counted using the eyepiece grid as a field marker. Partial or complete fields were counted per experimental group depending on the resulting number and density of hemadsorbed cells in the infected control cultures. Magnification of 60× or 150× were chosen to obtain the best conditions for enumerating the hemadsorbed cells. Field factors were calculated for counting hemadsorption at 60× and 150×. At 60× magnification, total field count was calculated using a multiplication factor of 55.5. At 150× magnification the multiplication factor was 273. The multiplication factors of 55.5 and 273 represent the total number of fields at 60× and 150× magnifications, respectively. The number of fields counted ranged from 3 to 5 per well with 3 to 4 wells per treatment group employed (see raw data tables in results section for number of fields examined). Means and standard errors were calculated and the data was evaluated using student's t-test analysis.

CCCCCC[C@H]([C@H](C)O)n1cnc2c(N)ncnc21 (relative stereo) [NPT 15426, Erythro-9-(2-Hydroxy-3-Nonyl)-Adenine. HCl] was tested, and the “Maximum Percent Change, Mitogen Induced (Con A) Mouse Lymph. Prolif.” value (Mouse spleen cells; 1.0-10) was -85%, the “Maximum Percent Change, Mitogen Induced (Con A) Mouse Lymph. Prolif.” value (Mouse spleen cells; 10-100) was -91% and the “Maximum Percent Change, Mitogen Induced (Con A) Mouse Lymph. Prolif.” value (Mouse spleen cells; .01-1.0) was -50%. The “Maximum Percent Change, Mitogen Induced (PHA) Human Lymph. Prolif.” value ([1]; 1.0-10) was -41%, the “Maximum Percent Change, Mitogen Induced (PHA) Human Lymph. Prolif.” value ([1]; .01-1.0) was 6% and the “anti-influenza activity by themselves” value (influenza virus) was “significant anti-influenza activity”.
In the case of OCCn1cnc2c(S)ncnc21 [NPT 15437], the “% Inhibition of Hemadsorption Foci” value ([2]; Conc. 10-100 μg/ml) is reported as 65%, the “% Inhibition of Hemadsorption Foci” value ([2]; Conc. >100 μg/ml, listed as 15437) is reported as 65% and the “DIP.PAcBA potentiation of Anti-Influenza activity” value (“DIP.PAcBA potentiation” for short) (influenza virus) is reported as “Yes”.
For CC(CO)n1cnc2c(=O)[nH]cnc21 (stereo not shown) [NPT 15444], the “% Inhibition of Hemadsorption Foci” value ([2]; Conc. 10-100 μg/ml, listed as 15444) was 44%, the “% Inhibition of Hemadsorption Foci” value ([2]; Conc. >100 μg/ml, listed as 15444) was 54% and the “DIP.PAcBA potentiation” value (influenza virus) was “Yes”.
In the case of CC(O)Cn1cnc2c(=O)[nH]cnc21 (stereo not shown) [NPT 15447], the “% Inhibition of Hemadsorption Foci” value ([2]; Conc. 10-100 μg/ml, listed as 15447) is reported as 26%, the “% Inhibition of Hemadsorption Foci” value ([2]; Conc. <10 μg/ml, listed as 15447) is reported as 10% and the “% Inhibition of Hemadsorption Foci” value ([2]; Conc. >100 μg/ml, listed as 15447) is reported as 34%. The “DIP.PAcBA potentiation” value (influenza virus) was “Yes”.
